Measurements published in US20240316051A1, “A PHARMACEUTICAL COMBINATION AND USE THEREOF” (Ascentage Pharma (Suzhou) Co., Ltd., priority 2021, published 2024).

Key:
[1] = system: Pfeiffer Cell line; experiment: Cell proliferation, Pfeiffer cell line; format: cell-based; details: Homo sapiens, anti-proliferative IC50, Table 4A
Description: (§1) Analysis of Cell Proliferation:
(§2) To assess the effect of PRC2 inhibition on cell growth, cells were seeded in 96-well cell culture plates at a density of 2 000-3 000 cells/well in 200 μL of culture medium, and treated with serially diluted compounds for 7 days at 37° C. in an atmosphere of 5% CO2. Cell growth was evaluated by a […] WST-8 assay (Dojindo Molecular Technologies) using a Tecan Infinite M1000 multimode microplate reader (Tecan, Morrisville, NC). The WST-8 reagent was added to the plate, incubated for 1-4 h, and read at 450 nm. The readings were normalized to the DMSO-treated cells, and the IC50 was calculated by nonlinear regression analysis using GraphPad Prism 6 software

[2] = system: human B cell lymphoma cell KARPAS422; experiment: Cell proliferation (WST-8), KARPAS422, 7 days; format: cell-based; details: KARPAS-422, 168 h, WST-8, Table 4A, read-out: Karpas Cell line
Description: as §1, §2

[3] = biological target: T1, EED (1-441)-His protein (Homo sapiens, UniProt O75530); experiment: EED-H3K27Me3 peptide competition binding assay by AlphaScreen; details: Table 4A, read-out: Alpha screen
T1 construct: 20 nM EED (1-441)-His protein
T1 sequence (O75530 whole entry): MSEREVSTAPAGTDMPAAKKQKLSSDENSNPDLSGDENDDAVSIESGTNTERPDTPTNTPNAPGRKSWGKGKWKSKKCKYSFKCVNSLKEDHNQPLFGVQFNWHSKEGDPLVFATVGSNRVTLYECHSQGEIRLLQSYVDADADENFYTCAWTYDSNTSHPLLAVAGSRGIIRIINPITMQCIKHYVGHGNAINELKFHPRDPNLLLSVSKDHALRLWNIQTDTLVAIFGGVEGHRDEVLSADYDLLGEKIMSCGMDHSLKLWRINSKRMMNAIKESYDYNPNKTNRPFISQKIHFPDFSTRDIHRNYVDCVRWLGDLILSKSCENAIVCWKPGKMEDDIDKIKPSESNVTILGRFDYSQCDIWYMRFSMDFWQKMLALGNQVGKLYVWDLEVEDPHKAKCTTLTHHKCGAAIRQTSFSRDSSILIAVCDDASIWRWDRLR
In short: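 Readout was AlphaScreen emission at 615 nm after 680 nm excitation, with 10 μg/ml final each of streptavidin donor and nickel chelate acceptor beads, 1 h at RT in the dark. Beforehand, compound met the His-tagged EED(1-441) for 15 min and then biotinylated H3K27Me3(19-33) peptide for 30 min; both were added as 20 nM solutions, buffer 25 mM HEPES pH 8, Tween-20, BSA. Percent activity left was fitted to give IC50.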

[4] = system: BAP1 mut mesothelioma PDX model; experiment: BAP1 mut mesothelioma PDX model (Examples 15-17); format: in vivo, mice; details: Compound 2-5 50 mg/kg, orally, once per day, 28 days
Description: (§3) A subcutaneous xenograft tumor model of human tumor immunodeficient mice was established by cell inoculation: tumor cells in logarithmic growth phase were collected, counted, resuspended in 1×PBS, and the cell suspension concentration was adjusted to 2.5-5×10^7/mL. The tumor cells were inoculated subcutaneously in the right side of immunodeficient mice with a 1 ml syringe ([…]), 5-10×10^6/0.2 mL/mouse. All animal experiments were strictly in accordance with the specifications for the use and management of experimental animals in GenePharma Co., Ltd. and Suzhou Ascentage Pharma Co., Ltd. The calculation of relevant parameters refers to the Chinese NMPA “Guidelines for Non-Clinical Research Techniques of Cytotoxic Anti-tumor Drugs”.
(§4) Animal body weight and tumor size were measured twice weekly during the experiment. The state of the animal and the presence or absence of death were observed every day. The growth of tumor and the effects of treatment on normal behavior of animals were monitored routinely, specifically involving experimental animal activity, feeding and drinking, weight gain or loss, eyes, clothing hair and other abnormalities. The deaths and clinical symptoms observed during the experiment were recorded in the raw data. All operations for administration and measurement of mouse body weight and tumor volume were performed in a clean bench. According to the requirements of the experimental protocol, after the end of the last administration, plasma and tumor tissues were collected, weighed and photographed. The plasma and tumor samples were frozen at −80° C. for ready-to-use.
(§5) Tumor volume (TV) is calculated as: TV=a×b^2/2, wherein a and b represent the length and width of the tumor to be measured, respectively.
(§6) The relative tumor volume (RTV) is calculated as: RTV=Vt/V1, wherein V1 is the tumor volume at the start of grouping and administration, and Vt is the tumor volume measured on the t day after administration.
(§7) The evaluation index of anti-tumor activity is the relative tumor proliferation rate T/C (%), and the calculation formula thereof is: relative tumor proliferation rate T/C (%)=(TRTV/CRTV)×100%, TRTV is the RTV of treatment group, CRTV is the RTV of solvent control group.
(§8) A dose of drug is considered to be severely toxic if the body weight of mouse is reduced by more than 20% or the number of drug-related deaths exceeds 20%.
(§9) According to the description by Clarke R., Issues in experimental design and endpoint analysis in the study of experimental cytotoxic agents in vivo in breast cancer and other models [J]. Breast Cancer Research & Treatment, 1997, 46(2-3): 255-278, synergy analysis was evaluated using the following formula: synergy factor=((A/C)×(B/C))/(AB/C); A=RTV value of drug A alone group; B=RTV value of drug B alone group; C=RTV value of the solvent control group, and AB=RTV value of the A and B combination group.
In this experiment, a BAP1 mut mesothelioma PDX model (Lide Biotech) was established to evaluate the anti-tumor effect of Compound 73. The dosing regimen was as follows: • Compound 73: 50 mg/kg, orally, once per day, for a total of 28 days; • Compound 73: 100 mg/kg, orally, once per day, for a total of 28 days;
In this experiment, a BAP1 mut mesothelioma PDX model (Lide Biotech) was established to evaluate the anti-tumor effect of Compound 73 in combination with Compound A-1. […]

[5] = system: NCI-H226 (BAP1mut, CDKN2Adel, FGFR high) xenograft; experiment: NCI-H226 xenograft model (Examples 18-19); format: in vivo, mice; details: Compound 2-5 50 mg/kg, orally, once per day, 35 days
Description: as §3
as §4, with “All operations for administration and measurement of mouse body weight and tumor volume were performed in a clean bench. According to the requirements of the experimental protocol, after the end of the last administration, plasma and tumor tissues were collected, weighed and photographed.” left out
as §5
(§10) The relative tumor volume (RTV) is calculated as: RTV=Vt/V1, wherein V1 is the tumor volume at the start of grouping and administration, and Vt is the tumor volume measured on the t day after administration. […]
Use of mRECIST (Gao et al., 2015) measured tumor responses included stable disease (SD), partial tumor regression (PR), and complete regression (CR), determined by comparing tumor volume change at day t to its baseline: tumor volume change (%)=(Vt−V1)/V1. […] For each time t, the average of tumor volume changes from t=1 to t was also calculated. […] Body weight of animals were monitored simultaneously. […]

[6] = system: LnCap prostate xenograft; experiment: Subcutaneous LnCap prostate xenograft model (Example 25); format: in vivo, mice; details: day 17
Description: as §3, §4, §5, §6, §7, §8, §9
(§11) In this experiment, subcutaneous LnCap prostate xenograft model was established to evaluate the anti-tumor effect of Compound 73 in combination with Compound C. The dosing regimen was as follows: • Compound C: 100 mg/kg, orally, every other day, for day 1-day 9; 50 mg/kg, orally, every other day, for day 10-day 28; • Compound 73: 100 mg/kg, orally, once per day, for a total of 28 days;
(§12) The dosing regimen of each drug in the dosing regimen for the combination is the same as the dosing regimen for the single drug, for a total of 28 days.

[7] = system: BAP1 mut mesothelioma PDX model; experiment: Subcutaneous BAP1 mut mesothelioma PDX model (Example 21); format: in vivo, mice; details: Compound 73 100 mg/kg orally once per day, Compound C 50 mg/kg orally every other day, 36 days; alone or combined
Description: as §3, §4, §5, §6, §7
(§13) Change of body weight (%)=(measured body weight-body weight at the start of grouping)/body weight at the start of grouping×100%.
as §8
In this experiment, subcutaneous BAP1 mut mesothelioma PDX model was established (Lide Biotech) to evaluate the anti-tumor effect of Compound 73 in combination with Compound C. […]

[8] = system: 22RV1 prostate xenograft; experiment: Subcutaneous 22RV1 prostate xenograft model (Example 24); format: in vivo, mice
Description: as §3, §4, §5, §6, §7, §13, §8, §9
as §11, with “22RV1” for “LnCap”, “a total of 28 days;” for “day 1-day 9; 50 mg/kg, orally, every other day, for day 10-day 28;”
as §12

[9] = system: H226 (BAP1mut, UHRF1high, TP53WT, CDKN2Adel, FGFRhigh) subcutaneous mesothelioma xenograft; experiment: H226 subcutaneous mesothelioma xenograft model (Example 22); format: in vivo, mice
Description: as §3, §4, §5, §6, §7, §13, §8
In this experiment, H226 (BAP1mut, UHRF1high, TP53WT, CDKN2Adel, FGFRhigh) subcutaneous mesothelioma xenograft model was established to evaluate the anti-tumor effect of Compound 73 in combination with Compound C. The dosing regimen was as follows: • Compound C: 50 mg/kg, orally, every other day, for a total of 39 days; • Compound 73: 50 mg/kg, orally, once per day, for a total of 39 days; • Compound 73: 100 mg/kg, orally, once per day, for a total of 39 days.

[10] = system: NCI-H28(X1) (BAP1mut, UHRF1high, TP53WT, CDKN2Adel, FGFRlow, NF2WT) subcutaneous mesothelioma xenograft; experiment: NCI-H28(X1) subcutaneous mesothelioma xenograft model (Example 23); format: in vivo, mice; details: Compound C 50 mg/kg orally every other day, Compound 73 100 mg/kg orally once per day, 28 days, alone or combined
Description: as §3, §4, §5, §6
The evaluation index of anti-tumor activity is the relative tumor proliferation rate T/C (%), and the calculation formula thereof is: relative tumor proliferation rate T/C (%)=(TRTV/CRTV)×100%, TRTV is the RTV of treatment group, CRTV is the RTV of solvent control group. […]
as §9, with “group. […]” for “group.”

[11] = system: malignant pleural mesothelioma (MPM) PDX model (FGFR1high; BAP1mut); experiment: Subcutaneous malignant pleural mesothelioma (MPM) PDX model (Example 20); format: in vivo, mice; details: Compound 73 100 mg/kg, Compound C 50 mg/kg, each orally every other day, 76 days; alone or combined
Description: as §3, §4, §5, §10
Change of body weight (%)=(measured body weight-body weight at the start of grouping)/body weight at the start of grouping×100%. […]
as §9, with “group. […]” for “group.”

O=C1c2ncn3c(NCc4c(F)ccc5c4CCO5)ncc(c23)-c2sccc2CN1C1CC1 [Compound 87, 4-cyclopropyl-11-(((5-fluoro-2,3-dihydrobenzofuran-4-yl)methyl)amino)-4,5-dihydro-3H-8-thia-2,4, 10,11a-tetraazacyclopenta[4,5]cycloocta[1,2,3-cd] inden-3-one]
IC50 [1]: 0.018 nM | IC50 [2]: 8.67 nM | IC50 [3]: 11.1 nM

Cc1cc(Nc2ncc(Cl)c(Nc3ccccc3S(=O)(=O)C(C)C)n2)c(OC(C)C)cc1C1=CCN(C2CCOCC2)CC1 [Compound 2-5, 5-chloro-N^2-(2-isopropoxy-5-methyl-4-(1-(tetrahydro-2H-pyran-4-yl)-1,2,3,6-tetrahydropyridin-4-yl)phenyl)-N^4-(2-(isopropylsulfonyl)phenyl)pyrimidine-2,4-diamine]
inhibition of tumor growth (in words) [4]: not effective in inhibiting tumor growth | inhibition of tumor growth (in words) [5]: almost not effective in inhibiting tumor growth

CCN1[C@@H](C(=O)NC23CCC(C(=O)O)(CC2)CC3)[C@H](c2cccc(Cl)c2F)[C@]2(C(=O)Nc3cc(Cl)ccc32)C12CCCCC2 [Compound C]
RTV@ D 17 ([6]; LnCap xenograft, Compound 73 100 mg/kg orally once per day, Compound C 100 mg/kg/50 mg/kg orally every other day): 2.57 ± 0.24 | T/C(%) @ D 17 ([6]; LnCap xenograft, Compound 73 100 mg/kg, Compound C 100 mg/kg/50 mg/kg): 57.46% | T/C value ([6]; Compound C 100 mg/kg every other day day 1-9 then 50 mg/kg day 10-28, Compound 73 100 mg/kg once per day, orally, alone or combined): 57.46% | RTV @ D 36 [7]: 8.04 | T/C (%) @ D 36 [7]: 55.17% | RTV@ D 26 ([8]; 22RV1 xenograft, day 26, Compound 73 100 mg/kg orally once per day, Compound C 50 mg/kg (table) orally every other day): 14.81 ± 4.35 | T/C(%) @ D 26 ([8]; 22RV1 xenograft, day 26, Compound 73 100 mg/kg, Compound C 50 mg/kg (table)): 93.39% | RTV@ D 29 ([8]; 22RV1 xenograft, day 29): 18.54 ± 7.96 | T/C value ([8]; day 26, Compound C 100 mg/kg orally every other day, Compound 73 100 mg/kg orally once per day, alone or combined): 93.39% | T/C (%) @ D 39 ([9]; Compound C 50 mg/kg orally every other day, Compound 73 50 mg/kg orally once per day, alone or combined): 49.45% | RTV @ D 39 ([9]; Compound C 50 mg/kg orally every other day, Compound 73 50 mg/kg orally once per day, alone or combined, mean ± SEM): 3.94 ± 0.69 | antitumor activity (in words) ([9]; single agents, 39 days (FIG. 10)): moderate antitumor activity | T/C (%) @ D 29 [10]: 92.16% | RTV@ D 29 ([10]; mean ± SEM): 14.06 ± 1.22 | RTV @ D 76 [11]: 3.47 | T/C (%) @ D 76 [11]: 60%
